Earlier results as cited in US20250367153A1, “COMPOSITION AND APPLICATION THEREOF” (priority 2024, published 2025).

What was measured:
[1] = test system: rat, mouse, and guinea pig

In the case of O=CC=Cc1ccccc1 [cinnamaldehyde], the LD50 [1] is given as 3400 mg/kg.

In the case of OCC=Cc1ccccc1 [cinnamyl alcohol], the LD50 [1] is given as 2675 mg/kg.

In the case of NCC(=O)O [glycine], the “NOAEL (no-observed-adverse-effect level)” value (rat) is listed as “at least 2000 mg/kg/day”.

For phosphatidylserine, the “acute oral LD50” value (rats and dogs; acute oral) is given as “greater than 5 g/kg bw” and the NOAEL (rats and dogs; rats and dogs) is given as 1,000 mg/kg bw/day.
